Several values for one entry are separate records, joined by “and”; a condition that tells them apart may be missing. Equal values may be shown once. Toxic doses and inconclusive results are not listed. Rule for the calls: active = survival T/C of 150% or more; inactive = T/C below 125% in these data.
System: BDF1 mice, L1210 leukemia sc, survival T/C
Experiment: NCI In Vivo Anticancer Drug Screen. Data for tumor model L1210 Leukemia (subcutaneous) in B6D2F1 (BDF1) mice
Conditions: endpoint: median survival time, higher = longer survival
Method in brief: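 Read-out: T/C ratio, i.e. survival or tumor size in treated mice over that in vehicle-treated controls, from mice bearing transplantable tumors.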

Measured: T/C

O=NN(CCCl)C(=O)NCCCl
inactive: dose: 0.65 mg/kg/injection, schedule: Q01DX Z (sc), vehicle: methylcellulose (MC) 115 % of control | dose: 0.75 mg/kg/injection, schedule: Q01DX009 (ip), vehicle: saline 110 % of control | dose: 1.08 mg/kg/injection, schedule: Q## X Z (sc), vehicle: methylcellulose (MC) 107 % of control | dose: 1.5 mg/kg/injection, schedule: Q01DX009 (ip), vehicle: saline 120 % of control | dose: 1.8 mg/kg/injection, schedule: Q07DX Z (sc), vehicle: methylcellulose (MC) 107 % of control | dose: 1.8 mg/kg/injection, schedule: Q## X Z (sc), vehicle: methylcellulose (MC) 115 % of control | dose: 3.0 mg/kg/injection, schedule: Q01DX001 (ip), vehicle: saline 119 % of control | dose: 3.0 mg/kg/injection, schedule: Q01DX001 (iv), vehicle: saline 123 % of control | dose: 3.0 mg/kg/injection, schedule: Q07DX Z (sc), vehicle: methylcellulose (MC) 115 % of control | dose: 3.0 mg/kg/injection, schedule: Q## X Z (sc), vehicle: methylcellulose (MC) 119 % of control | dose: 3.0 mg/kg/injection, schedule: Q## X Z (sc), vehicle: saline 123 % of control | dose: 5.0 mg/kg/injection, schedule: Q01DX001 (sc), vehicle: saline 115 % of control | dose: 5.0 mg/kg/injection, schedule: Q07DX Z (sc), vehicle: saline 120 % of control and 123 % of control | dose: 14.0 mg/kg/injection, schedule: Q07DX Z (sc), vehicle: other 88 % of control | dose: 24.0 mg/kg/injection, schedule: Q01DX009 (ip), vehicle: saline 115 % of control | dose: 60.0 mg/kg/injection, schedule: Q01DX001 (ip), vehicle: saline 124 % of control | dose: 65.0 mg/kg/injection, schedule: Q01DX001 (oral), vehicle: saline 114 % of control | dose: 80.0 mg/kg/injection, schedule: Q01DX001 (sc), vehicle: methylcellulose (MC) 110 % of control | dose: 80.0 mg/kg/injection, schedule: Q01DX001 (sc), vehicle: saline 110 % of control | dose: 108.0 mg/kg/injection, schedule: Q01DX001 (oral), vehicle: saline 104 % of control | dose: 120.0 mg/kg/injection, schedule: Q01DX001 (sc), vehicle: methylcellulose (MC) 100 % of control | dose: 120.0 mg/kg/injection, schedule: Q01DX001 (sc), vehicle: saline 105 % of control | dose: 180.0 mg/kg/injection, schedule: Q01DX001 (oral), vehicle: saline 95 % of control
active: dose: 1.8 mg/kg/injection, schedule: Q01DX Z (sc), vehicle: methylcellulose (MC) 184 % of control | dose: 3.0 mg/kg/injection, schedule: Q01DX009 (ip), vehicle: saline 190 % of control | dose: 3.0 mg/kg/injection, schedule: Q01DX Z (oral), vehicle: saline 205 % of control | dose: 3.0 mg/kg/injection, schedule: Q01DX Z (sc), vehicle: methylcellulose (MC) 223 % of control | dose: 5.0 mg/kg/injection, schedule: Q01DX Z (oral), vehicle: saline 521 % of control | dose: 5.0 mg/kg/injection, schedule: Q01DX Z (sc), vehicle: methylcellulose (MC) 200 % of control | dose: 5.0 mg/kg/injection, schedule: Q## X Z (sc), vehicle: methylcellulose (MC) 173 % of control | dose: 6.0 mg/kg/injection, schedule: Q01DX009 (ip), vehicle: saline 210 % of control | dose: 8.4 mg/kg/injection, schedule: Q01DX001 (ip), vehicle: saline 233 % of control | dose: 8.4 mg/kg/injection, schedule: Q01DX001 (iv), vehicle: saline 247 % of control | dose: 8.4 mg/kg/injection, schedule: Q01DX Z (oral), vehicle: saline 284 % of control | dose: 8.4 mg/kg/injection, schedule: Q01DX Z (sc), vehicle: methylcellulose (MC) 188 % of control | dose: 8.4 mg/kg/injection, schedule: Q07DX Z (sc), vehicle: methylcellulose (MC) 161 % of control | dose: 8.4 mg/kg/injection, schedule: Q07DX Z (sc), vehicle: other 305 % of control | dose: 8.4 mg/kg/injection, schedule: Q07DX Z (sc), vehicle: saline 161 % of control and 210 % of control and 252 % of control | dose: 8.4 mg/kg/injection, schedule: Q16DX002 (ip), vehicle: saline 172 % of control | dose: 8.4 mg/kg/injection, schedule: Q## X Z (sc), vehicle: methylcellulose (MC) 250 % of control | dose: 8.4 mg/kg/injection, schedule: Q## X Z (sc), vehicle: saline 246 % of control | dose: 10.0 mg/kg/injection, schedule: Q01DX001 (sc), vehicle: methylcellulose (MC) 255 % of control | dose: 10.0 mg/kg/injection, schedule: Q01DX001 (sc), vehicle: saline 185 % of control | dose: 10.8 mg/kg/injection, schedule: Q01DX001 (ip), vehicle: saline 150 % of control | dose: 10.8 mg/kg/injection, schedule: Q01DX001 (sc), vehicle: saline 248 % of control and 250 % of control | dose: 10.8 mg/kg/injection, schedule: Q07DX003 (sc), vehicle: saline 274 % of control and 275 % of control | dose: 14.0 mg/kg/injection, schedule: Q01DX001 (iv), vehicle: saline 209 % of control | dose: 14.0 mg/kg/injection, schedule: Q01DX Z (oral), vehicle: saline 194 % of control | dose: 14.0 mg/kg/injection, schedule: Q01DX Z (sc), vehicle: saline 161 % of control and 273 % of control and 285 % of control | dose: 14.0 mg/kg/injection, schedule: Q01HX002 (ip), vehicle: saline 315 % of control | dose: 14.0 mg/kg/injection, schedule: Q07DX Z (sc), vehicle: methylcellulose (MC) 173 % of control | dose: 14.0 mg/kg/injection, schedule: Q07DX Z (sc), vehicle: saline 200 % of control | dose: 14.0 mg/kg/injection, schedule: Q16DX002 (ip), vehicle: saline 315 % of control | dose: 14.0 mg/kg/injection, schedule: Q## X Z (sc), vehicle: methylcellulose (MC) 315 % of control | dose: 14.0 mg/kg/injection, schedule: Q## X Z (sc), vehicle: saline 315 % of control | dose: 18.0 mg/kg/injection, schedule: Q01DX001 (ip), vehicle: saline 181 % of control and 200 % of control | dose: 18.0 mg/kg/injection, schedule: Q01DX001 (sc), vehicle: saline 310 % of control and 352 % of control | dose: 18.0 mg/kg/injection, schedule: Q07DX003 (sc), vehicle: saline 645 % of control and 660 % of control | dose: 20.0 mg/kg/injection, schedule: Q01DX001 (sc), vehicle: methylcellulose (MC) 240 % of control | dose: 20.0 mg/kg/injection, schedule: Q01DX001 (sc), vehicle: saline 270 % of control | dose: 23.0 mg/kg/injection, schedule: Q01DX001 (ip), vehicle: saline 480 % of control | dose: 23.0 mg/kg/injection, schedule: Q01DX001 (iv), vehicle: saline 423 % of control | dose: 23.0 mg/kg/injection, schedule: Q01DX Z (oral), vehicle: saline 157 % of control | dose: 23.0 mg/kg/injection, schedule: Q01HX002 (ip), vehicle: saline 315 % of control | dose: 23.0 mg/kg/injection, schedule: Q07DX Z (sc), vehicle: methylcellulose (MC) 184 % of control | dose: 23.0 mg/kg/injection, schedule: Q07DX Z (sc), vehicle: other 555 % of control | dose: 23.0 mg/kg/injection, schedule: Q07DX Z (sc), vehicle: saline 438 % of control and 631 % of control and 645 % of control | dose: 23.0 mg/kg/injection, schedule: Q16DX002 (ip), vehicle: saline 315 % of control | dose: 23.0 mg/kg/injection, schedule: Q## X Z (sc), vehicle: saline 284 % of control | dose: 30.0 mg/kg/injection, schedule: Q01DX001 (ip), vehicle: saline 218 % of control and 483 % of control | dose: 30.0 mg/kg/injection, schedule: Q01DX001 (sc), vehicle: saline 410 % of control and 441 % of control | dose: 30.0 mg/kg/injection, schedule: Q07DX003 (sc), vehicle: saline 295 % of control and 303 % of control | dose: 39.0 mg/kg/injection, schedule: Q01DX001 (ip), vehicle: saline 309 % of control | dose: 39.0 mg/kg/injection, schedule: Q07DX Z (sc), vehicle: other 294 % of control | dose: 39.0 mg/kg/injection, schedule: Q07DX Z (sc), vehicle: saline 173 % of control and 315 % of control | dose: 40.0 mg/kg/injection, schedule: Q01DX001 (sc), vehicle: methylcellulose (MC) 230 % of control | dose: 40.0 mg/kg/injection, schedule: Q01DX001 (sc), vehicle: saline 195 % of control | dose: 48.0 mg/kg/injection, schedule: Q01DX001 (ip), vehicle: saline 292 % of control | dose: 50.0 mg/kg/injection, schedule: Q01DX001 (ip), vehicle: saline 475 % of control | dose: 50.0 mg/kg/injection, schedule: Q01DX001 (sc), vehicle: saline 205 % of control | dose: 65.0 mg/kg/injection, schedule: Q07DX Z (sc), vehicle: other 205 % of control

— PubChem BioAssay AID250 (DTP/NCI, 2004)
